Source: PMC4624480 (Biochemistry, 2015)
Converted amounts (≈) assume the structure as drawn.

Assays:
B. subtilis (ATCC 6057) = assay: Antibacterial activity; type: cell-based
[1] = tested on: methicillin-resistant S. aureus (ATCC BAA-1762); assay: Antibacterial activity; type: cell-based
M. tuberculosis (H37Rv) [2] = assay: Antibacterial activity; type: cell-based
[3] = tested on: methicillin-resistant S. aureus (ATCC BAA-1762); assay: Growth rescue: MIC with exogenous MK4, MRSA; type: cell-based; settings: exogenous 10 μg/mL MK4 added to the synthetic growth media
M. tuberculosis (H37Rv) [4] = assay: Growth rescue: MIC with exogenous MK4, M. tuberculosis; type: cell-based; settings: exogenous 10 μg/mL MK4 added to the synthetic growth media
[5] = tested on: Vero (monkey kidney epithelial) cells; assay: Cytotoxicity, Trypan Blue; type: cell-based; settings: minimum concentration giving ~90% cell death
[6] = tested on: menaquinone levels in S. aureus; assay: Quantification of menaquinone levels by LC-MS/MS; type: cell-based
[7] = tested on: B. subtilis, MRSA and M. tuberculosis; assay: Antibacterial activity; type: cell-based; settings: summary in text over B. subtilis, MRSA (S. aureus)
E. coli (K-12) = assay: Antibacterial activity; settings: aerobic, MIC-99 by visual inspection
ecMenE (wild-type) = ecMenE (wild-type) (Escherichia coli, UniProt P37353); assay: Isothermal titration calorimetry, wild-type ecMenE; settings: ITC, wt ecMenE
ecMenE (wild-type), sequence (P37353 whole entry): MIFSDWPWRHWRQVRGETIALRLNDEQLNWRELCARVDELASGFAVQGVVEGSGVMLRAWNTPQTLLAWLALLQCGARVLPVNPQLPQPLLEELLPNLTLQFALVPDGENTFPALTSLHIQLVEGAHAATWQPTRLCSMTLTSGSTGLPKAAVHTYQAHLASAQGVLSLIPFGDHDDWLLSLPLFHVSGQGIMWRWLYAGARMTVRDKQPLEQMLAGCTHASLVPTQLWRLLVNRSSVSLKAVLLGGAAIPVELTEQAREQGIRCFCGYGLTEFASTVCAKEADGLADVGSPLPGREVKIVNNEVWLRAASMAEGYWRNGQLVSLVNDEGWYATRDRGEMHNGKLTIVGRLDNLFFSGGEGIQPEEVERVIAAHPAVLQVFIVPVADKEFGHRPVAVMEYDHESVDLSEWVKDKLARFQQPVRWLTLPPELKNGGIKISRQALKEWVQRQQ

E. coli MenE (ecMenE) = E. coli MenE (ecMenE) (Escherichia coli, UniProt P37353); type: biochemical
E. coli MenE (ecMenE), sequence (P37353 whole entry): as above

pKa of the OSB analogue = pKa of the OSB analogue (side chain)

Nc1ncnc2c1ncn2[C@@H]1O[C@H](COS(=O)(=O)NC(=O)CCC(=O)c2ccccc2C(=O)O)[C@@H](O)[C@H]1O [compound 1, OSB-AMS]
MIC (B. subtilis (ATCC 6057)): 62.5 µg/mL (≈ 114 µM) | MIC ([1]; MRSA (ATCC BAA-1762)): 31.25 µg/mL (≈ 56.8 µM) | antibacterial activity lower than the IC50 for enzyme inhibition ([1]; antibacterial activity vs enzyme IC50): ~ 1000 fold | MIC (M. tuberculosis (H37Rv) [2]): 125 µg/mL (≈ 227 µM) | MIC + MK4 [3]: > 250 µg/mL | MIC + MK4 (M. tuberculosis (H37Rv) [4]): > 250 µg/mL | Cytotoxicity [5]: 125 µg/mL | decrease in MK levels ([6]; MRSA, 15.6 μM OSB-AMS (half-MIC)): ~ 60% | decrease in the levels of all menaquinones ([6]; S. aureus treated with OSB-AMS below its MIC): 3–5 fold | MIC [7]: 30 to 125 µg/mL | MIC (E. coli (K-12)): > 500 µg/mL | ΔG (ecMenE (wild-type)): -10.0 kcal/mol | ΔH (ecMenE (wild-type)): -2.0 ± 0.1 kcal/mol | Kd (ecMenE (wild-type); read-out: Kd OSB-AMS): 44 ± 11 nM

MSB-AMS [compound 2]
effect on MenE activity (E. coli MenE (ecMenE)): did not affect MenE activity | inhibition of ecMenE (E. coli MenE (ecMenE)): no inhibition | pKa (pKa of the OSB analogue): 4

O=C(O)CCC(=O)c1ccccc1C(=O)O [OSB, o-succinylbenzoate]
Km (E. coli MenE (ecMenE); read-out: KM OSB, wt ecMenE, pH 7.4, 25°C): 1 ± 0.02 µM | kcat (E. coli MenE (ecMenE); wt ecMenE, substrate OSB): 0.767 ± 0.002 s⁻¹
